From patent US9434711B2 (Janssen Pharmaceutica, NV, priority 2007, dated 2016)
Like-named read-outs stand apart in the source and are kept apart here.

Target: canine TRPM8 (Canis lupus familiaris, UniProt Q1A7N1)
Experiment: In Vitro Canine TRPM8 Functional Assay (Ca2+ fluorescence, icilin activation)
Format: cell-based
Details: for IC50: read-out: IC50; for inhibition at 0.5 µM: compound at 0.5 μM, read-out: % Inh @ 0.5; for inhibition at 0.2 µM: read-out: % Inh @ 0.2
Outline: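 Canine TRPM8 stably expressed in HEK293; compound added 5 min before icilin challenge (~80% max response), with fluorescent Ca2+ signal tracked throughout.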

[1] = HEK293 cells stably expressing canine TRPM8, icilin activation, eight-point dose-response
[2] = canine TRPM8, icilin activation
[3] = compound at 0.2 μM, canine TRPM8, icilin activation
[4] = 0.2 μM compound, HEK293 cells stably expressing canine TRPM8, icilin activation
[5] = HEK293 cells stably expressing canine TRPM8, icilin activation, average of two or more determinations

canine TRPM8, sequence (Q1A7N1 1-1104): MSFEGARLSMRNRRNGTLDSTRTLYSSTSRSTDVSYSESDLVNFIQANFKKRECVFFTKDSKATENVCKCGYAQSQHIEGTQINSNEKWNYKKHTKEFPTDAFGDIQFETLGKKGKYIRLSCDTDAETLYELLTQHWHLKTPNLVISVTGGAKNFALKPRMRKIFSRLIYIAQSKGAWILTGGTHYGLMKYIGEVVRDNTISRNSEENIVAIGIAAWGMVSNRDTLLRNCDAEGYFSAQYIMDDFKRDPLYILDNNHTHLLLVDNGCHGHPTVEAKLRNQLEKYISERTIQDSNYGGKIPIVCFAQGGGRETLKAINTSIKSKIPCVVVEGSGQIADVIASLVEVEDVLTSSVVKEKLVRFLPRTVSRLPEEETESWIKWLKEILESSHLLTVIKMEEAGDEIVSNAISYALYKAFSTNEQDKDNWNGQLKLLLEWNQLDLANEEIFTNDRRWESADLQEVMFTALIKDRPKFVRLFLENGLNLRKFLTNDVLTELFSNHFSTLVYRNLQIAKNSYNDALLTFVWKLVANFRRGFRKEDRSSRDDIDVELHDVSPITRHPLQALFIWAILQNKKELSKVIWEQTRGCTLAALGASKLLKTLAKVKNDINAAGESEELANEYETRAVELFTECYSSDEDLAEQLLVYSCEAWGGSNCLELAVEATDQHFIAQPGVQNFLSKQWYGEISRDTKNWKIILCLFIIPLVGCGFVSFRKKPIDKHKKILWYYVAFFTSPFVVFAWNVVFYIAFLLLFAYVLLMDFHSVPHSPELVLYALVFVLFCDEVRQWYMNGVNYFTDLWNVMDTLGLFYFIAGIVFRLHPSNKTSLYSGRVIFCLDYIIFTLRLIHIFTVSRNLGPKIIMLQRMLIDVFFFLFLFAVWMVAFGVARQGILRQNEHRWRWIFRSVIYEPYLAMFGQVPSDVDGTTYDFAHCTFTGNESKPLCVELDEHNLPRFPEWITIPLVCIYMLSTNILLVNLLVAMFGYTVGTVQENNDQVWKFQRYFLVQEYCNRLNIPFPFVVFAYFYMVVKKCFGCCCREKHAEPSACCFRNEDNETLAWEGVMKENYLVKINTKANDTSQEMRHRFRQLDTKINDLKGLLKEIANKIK

| Compound | IC50 [1] | inhibition at 0.2 µM [3] | further results |
| --- | --- | --- | --- |
| C=CCN(c1sc2ccccc2c1Cl)S(=O)(=O)c1ccccc1 [Compound 84, N-(Allyl)-N-(3-chloro-benzo[b]thiophen-2-yl)-benzenesulfonamide] | 35 nM | – | inhibition at 0.5 µM [2]: 100% |
| COC(=O)CN(c1sc2ccccc2c1Br)S(=O)(=O)c1ccccc1 [Compound 243, N-(3-Bromo-benzo[b]thiophen-2-yl)-N-(carbomethoxymethyl)-benzenesulfonamide] | 38 nM | 98% | – |
| COC(=O)c1cccc(S(=O)(=O)N(Cc2ccc(F)c(C(F)(F)F)c2)c2sc3ccccc3c2Cl)c1 [Compound 195, N-(3-Chloro-benzo[b]thiophen-2-yl)-N-(4-fluoro-3-trifluoromethyl-benzyl)-3-carbomethoxy-benzenesulfonamide] | 47.3 nM | 88% | – |
| Cc1cccc(CN(c2sc3ccccc3c2Br)S(=O)(=O)c2ccccc2)c1 [Compound 179, N-(3-Bromo-benzo[b]thiophen-2-yl)-N-(3-methyl-benzyl)-benzenesulfonamide] | 3.6 nM | – | inhibition at 0.5 µM [2]: 98% |
| CCCCN(c1sc2ccccc2c1C(C)(C)O)S(=O)(=O)c1ccc(C(=O)O)cc1 [Compound 343, N-(Butyl)-N-(3-(1-hydroxy-1-methyl-ethyl)-benzo[b]thiophen-2-yl)-4-carboxy-benzenesulfonamide] | 19 nM | 98% | – |
| CC(C)(O)c1c(N(CCCF)S(=O)(=O)c2ccccc2)sc2ccccc12 [Compound 830, N-(3-Fluoropropyl)-N-[3-(1-hydroxy-1-methyl-ethyl)-benzo[b]thiophen-2-yl]-benzenesulfonamide] | – | – | inhibition at 0.2 µM [4]: 102%; IC50 [5]: 15 nM |
| O=S(=O)(c1ccccc1)N(c1cc2ccccc2s1)C1CCCCC1 [Compound 119, N-(Benzo[b]thiophen-2-yl)-N-(cyclohexyl)-benzenesulfonamide] | 134 nM | – | inhibition at 0.5 µM [2]: 93% |
| O=S(=O)(c1ccc(-c2nnn[nH]2)cc1)N(CCCCC(F)(F)F)c1sc2ccccc2c1Cl [Compound 580, N-(3-Chloro-benzo[b]thiophen-2-yl)-N-(5,5,5-trifluoro-pentyl)-4-(1H-tetrazol-5-yl)-benzenesulfonamide] | 22.1 nM | 101% | – |
| Nc1ccc(S(=O)(=O)N(CCC(F)(F)F)c2sc3ccccc3c2Br)cc1 [Compound 587, 4-Amino-N-(3-bromo-benzo[b]thiophen-2-yl)-N-(3,3,3-trifluoro-propyl)-benzenesulfonamide] | 3.9 nM | 100% | – |
| O=S1NC(c2ccc(S(=O)(=O)N(CCC(F)(F)F)c3sc4ccccc4c3Br)cc2)=NO1 (centres unmarked) [Compound 607, N-(3-Bromo-benzo[b]thiophen-2-yl)-N-(3,3,3-trifluoro-propyl)-4-(3H-[1,2,3,5]oxathiadiazole-2-oxide)-benzenesulfonamide] | 36.8 nM | – | % Inh @ 0.2 (μM) [3]: 101% |
| CN(C)S(=O)(=O)N(CCOC(C)(C)C)c1sc2ccccc2c1Br [Compound 267, N-(3-Bromo-benzo[b]thiophen-2-yl)-N-(2-tert-butoxy-ethyl)-N′,N′-dimethylsulfamide] | 10 nM | 96% | – |
| CC(=O)CCCN(c1sc2ccccc2c1Br)S(=O)(=O)c1ccccc1 [Compound 253, N-(3-Bromo-benzo[b]thiophen-2-yl)-N-(4-oxo-pentyl)-benzenesulfonamide] | 27.3 nM | 101% | – |
| CCS(=O)(=O)N(CCC(F)(F)F)c1sc2ccccc2c1C(C)O (centres unmarked) [Compound 282, N-(3-(1-Hydroxyethyl)benzo[b]thiophen-2-yl)-N-(3,3,3-trifluoro-propyl)-ethanesulfonamide] | 70 nM | 86% | – |
| CCCCN(c1sc2ccccc2c1OC)S(=O)(=O)c1ccc(C(=O)OC)cc1 [Compound 422, N-(Butyl)-N-(3-methoxy-benzo[b]thiophen-2-yl)-4-carbomethoxybenzenesulfonamide] | 18 nM | 97% | – |
| Cc1c(N(CCCC(F)(F)F)S(=O)(=O)c2ccc(Oc3ccncc3)cc2)sc2ccccc12 [Compound 372, N-(3-Methyl-benzo[b]thiophen-2-yl)-N-(4,4,4-trifluoro-butyl)-4-(pyridin-4-yloxy)-benzenesulfonamide] | 27 nM | 91% | – |
| O=S(=O)(c1ccsc1)N(Cc1ccc(F)c(C(F)(F)F)c1)c1sc2ccccc2c1Br [Compound 186, N-(3-Bromo-benzo[b]thiophen-2-yl)-N-(4-fluoro-3-trifluoromethyl-benzyl)-thien-3-yl-sulfonamide] | 3.7 nM | 103% | – |
| CCS(=O)(=O)N(Cc1ccnc(F)c1)c1sc2ccccc2c1C(C)O (centres unmarked) [Compound 835, N-(2-Fluoropyridin-4-ylmethyl)-N-[3-(1-hydroxyethyl)-benzo[b]thiophen-2-yl]-ethanesulfonamide] | – | – | inhibition at 0.2 µM [4]: 89%; IC50 [5]: 55.1 nM |
| NC(=O)c1ccc(S(=O)(=O)N(CCCC(F)(F)F)c2cc3ccccc3s2)cc1 [Compound 414, N-(Benzo[b]thiophen-2-yl)-N-(4,4,4-trifluoro-butyl)-4-carboxamide-benzene-sulfonamide] | – | – | % Inh @ 0.2 (μM) [3]: 33% |
| CCCCN(c1sc2ccccc2c1Br)S(=O)(=O)c1cccnc1 [Compound 345, N-(3-Bromobenzo[b]thiophen-2-yl)-N-(butyl)-pyridin-3-yl-sulfonamide] | 26.5 nM | 99% | – |
| Cc1c(N(CCC2CC2)S(=O)(=O)c2ccc(C(=O)O)cc2F)sc2ccccc12 [Compound 589, N-(3-Methyl-benzo[b]thiophen-2-yl)-N-(2-cyclopropyl-ethyl)-2-fluoro-4-carboxy-benzenesulfonamide] | 4.2 nM | 100% | – |
| CCCCN(c1sc2ccccc2c1Br)S(=O)(=O)c1ccccc1 [Compound 231, N-(3-Bromo-benzo[b]thiophen-2-yl)-N-(butyl)-benzenesulfonamide] | 29 nM | – | inhibition at 0.5 µM [2]: 95% |
| COCc1c(N(CCCF)S(=O)(=O)c2ccccc2)sc2ccccc12 [Compound 832, N-(3-Fluoro-propyl)-N-(3-methoxymethyl-benzo[b]thiophen-2-yl)-benzenesulfonamide] | – | – | inhibition at 0.2 µM [4]: 76%; IC50 [5]: 88 nM |
| CCS(=O)(=O)N(Cc1ccc(F)c(C(F)(F)F)c1)c1sc2ccccc2c1C(C)OC (centres unmarked) [Compound 839, N-(4-Fluoro-3-trifluoromethyl-benzyl)-N-[3-(1-methoxy-ethyl)-benzo[b]thiophen-2-yl]-ethanesulfonamide] | – | – | inhibition at 0.2 µM [4]: 101%; IC50 [5]: 15.9 nM |
| Cc1c(N(Cc2ccc(F)c(C(F)(F)F)c2)S(=O)(=O)c2ccc(C3=NOS(=O)N3)cc2)sc2ccccc12 (centres unmarked) [Compound 543, N-(3-Methyl-benzo[b]thiophen-2-yl)-N-(4-fluoro-3-trifluoromethyl-benzyl)-4-(3H-[1,2,3,5]oxathiadiazole-2-oxide)-benzenesulfonamide] | 7.2 nM | – | % Inh @ 0.2 (μM) [3]: 104.46% |
| Cc1c(N(CCC2CC2)S(=O)(=O)c2ccc(-c3nnn[nH]3)nc2)sc2ccccc12 [Compound 804] | – | – | inhibition at 0.2 µM [4]: 102% |
| N-(Benzo[b]thiophen-2-yl)-N-(3,3,3-trifluoro-propyl)-4-(5-oxo-4,5-dihydro-[1,2,4]oxadiazol-3-yl)-benzenesulfonamide [Compound 597] | – | – | % Inh @ 0.2 (μM) [3]: 25% |
| CCCCN(c1cc2ccccc2s1)S(=O)(=O)c1ccc(N2CCCC2)cc1 [Compound 445, N-(Benzo[b]thiophen-2-yl)-N-(butyl)-4-pyrrolidin-1-yl-benzenesulfonamide] | – | 58% | – |
| COc1ccc(S(=O)(=O)N(Cc2ccc(F)c(C(F)(F)F)c2)c2sc3ccccc3c2C)cn1 [Compound 359] | 17 nM | 93% | – |

More lines, main results first:

| IC50 [1] | inhibition at 0.2 µM [3] | Compound | further results |
| --- | --- | --- | --- |
| – | 100% | Cc1c(N(CCCCC(F)(F)F)S(=O)(=O)c2ccc(N3CCOCC3)nc2)sc2ccccc12 [Compound 788] | – |
| – | 101% | O=S(=O)(c1ccc(-c2nnn[nH]2)cc1)N(CCC1CC1)c1sc2ccccc2c1Br [Compound 594, N-(3-Bromo-benzo[b]thiophen-2-yl)-N-(2-cyclopropyl-ethyl)-4-(1H-tetrazol-5-yl)-benzenesulfonamide] | – |
| – | 56% | Cc1c(N(CCC2CC2)S(=O)(=O)c2ccc(C(=O)N3CCN(C)CC3)cc2)sc2ccccc12 [Compound 777, N-(2-Cyclopropyl-ethyl)-N-(3-methyl-benzo[b]thiophen-2-yl)-4-(4-methyl-piperazine-1-carbonyl)-benzenesulfonamide] | – |
| 29 nM | 96% | CS(=O)(=O)Nc1cccc(S(=O)(=O)N(CCC(F)(F)F)c2sc3ccccc3c2Cl)c1 [Compound 714, N-(3-Chloro-benzo[b]thiophen-2-yl)-3-methanesulfonylamino-N-(3,3,3-trifluoro-propyl)-benzenesulfonamide] | – |
| 2 nM | 102% | O=C(O)c1ccc(S(=O)(=O)N(Cc2ccc(F)c(C(F)(F)F)c2)c2sc3ccccc3c2Br)c(F)c1 [Compound 711, N-(3-Bromo-benzo[b]thiophen-2-yl)-N-(4-fluoro-3-trifluoromethyl-benzyl)-2-fluoro-4-carboxy-benzenesulfonamide] | – |
| 39 nM | 96% | O=S(=O)(Nc1ccc(S(=O)(=O)N(CCC2CC2)c2sc3ccccc3c2Cl)cc1)C1CC1 [Compound 718, N-(3-Chloro-benzo[b]thiophen-2-yl)-4-cyclopropanesulfonylamino-N-(2-cyclopropyl-ethyl)-benzenesulfonamide] | – |
| – | 55% | NC1=C(N(CCC2CC2)S(=O)(=O)c2ccccc2)S(=O)(=O)c2ccccc21 [Compound 646, N-(3-Amino-1,1-dioxo-1H-benzo[b]thiophen-2-yl)-N-(2-cyclopropylethyl)-benzenesulfonamide] | – |
